The values below are quoted from earlier work in patent US20090042781A1, “Methods for Treating Diabetes” (Novo Nordisk A/S, priority 2004, published 2009).

The conditions of data set [1]: administered by gastric gavage.
The conditions of data set [2]: injected into dogs.

On to `CC(C)(Oc1ccc(C2CC2(Cl)Cl)cc1)C(=O)O` (stereo not drawn) [ciprofibrate], for which the serum gastrin level result in data set [1] is “increase”.
As for Exendin-4, in data set [2], the blood glucose level entry is recorded as “lowering of the blood glucose level” and the insulin release result is listed as “stimulate insulin release”.
